Here are results for 42 compounds from ChEMBL document CHEMBL4483862, “Open-source discovery of chemical leads for next-generation chemoprotective antimalarials” (2018).

As usually defined, the IC50 is the concentration needed to halve the response being measured. In general, IC90 refers to the concentration needed for an effect of 90%.

The test system of the assay is Plasmodium berghei. The assay can be described thus: Luciferase/luciferin-expressing antifolate-resistant parasites were used to infect a culture of HepG2 cells that were pre-incubated with compounds. Infected hepatocytes emit light due to the luciferase reaction. Assay results are presented as the percent inhibition of light emission compared to control. […]. Type of assay: functional. The conditions noted are these: sporozoite; for IC90: read-out: LUCIFERASE INFECTION ASSAY - IC90.

The mark [1] stands for this setting: read-out: LUCIFERASE INFECTION ASSAY - IC50.

Structures are written as SMILES. Some results are limits rather than exact numbers.

As for `CC(=O)Nc1ncc2c(Cl)cccc2n1`, the IC90 was > 14.9 µM. Also, for the setting “HEPG2TOX_HILL_SLOPE 2.36, HEPG2TOX_R_SQUARED 0.885, PBLUC_HILL_SLOPE 2.93, PBLUC_R_SQUARED 0.162, read-out: LUCIFERASE INFECTION ASSAY - IC50”, the half-inhibitory concentration (IC50) came to 7.84 µM.
As for `CNc1snc(C)c1C(=O)NCC(C(C)C)N1CCc2ccccc2C1` (centres undefined), the IC90 is > 10 µM. The 50% inhibitory concentration (IC50) under setting [1] was > 10 µM.
In the case of `CC(C)c1cccc(N2CC(C(=O)N3CCC(C(N)=O)CC3)CC2=O)c1` (centres undefined), the IC90 was > 10 µM. For the same compound, the IC50 under setting [1] is > 10 µM.
Consider `O=C(c1ccc(O)cc1)C1CCN(C(=O)c2cccc(N3CCCC3=O)c2)CC1`, for which the concentration for an effect of 90% (IC90) is > 10 µM. Moreover, the IC50 under setting [1] was > 10 µM.
Take `CC(OC(=O)c1cccnc1N)C(=O)Nc1ccc2ccccc2c1` (centres undefined): the IC90 was > 10 µM. In addition, the IC50 under setting [1] was > 10 µM.
Regarding `CC1CCc2c(sc3ncnc(NCC(c4ccccc4)N(C)C)c23)C1` (centres undefined), the IC90 is > 10 µM. Besides, the IC50 under setting [1] is > 10 µM.
As to `CC1CCC(NC(=O)[C@H](Cc2ccccc2)NC(=O)C(c2ccccc2)c2ccccc2)CC1` (some centres undefined), the IC90 was > 10 µM. In addition, where the note is “PBLUC_HILL_SLOPE 2.1, PBLUC_R_SQUARED 0.545, read-out: LUCIFERASE INFECTION ASSAY - IC50”, the half-maximal inhibitory concentration (IC50) is 4.82 µM.
As to `COc1ccc(-c2cnc3cnc(-c4cccc(C(=O)NCCO)c4)cn23)cn1`, the concentration for an effect of 90% (IC90) was > 8.47 µM. Further, the IC50 (PBLUC_HILL_SLOPE 11.3, PBLUC_R_SQUARED 0.241, read-out: LUCIFERASE INFECTION ASSAY - IC50) is 8.2 µM.
Consider `Cc1c(-c2ccccc2)nc2ccccc2c1C(=O)OCC(=O)c1cc(C)n(Cc2ccco2)c1C`, for which the IC90 is > 10 µM. The IC50 under setting [1] is > 10 µM.
For the compound `CC(C)c1ccc(C(=O)N2CC(C(=O)N3CCOCC3)Oc3ccccc32)cc1` (centres undefined), the IC90 is > 10 µM. For the same compound, under setting [1], the IC50 is > 10 µM.
As to `Cc1cc(C)n(-c2ccc(CN3c4ccc(S(N)(=O)=O)cc4CC3C)cc2)n1` (centres undefined), the concentration for an effect of 90% (IC90) turned out to be 1.54 µM. Further, under “HEPG2TOX_HILL_SLOPE 1.67, HEPG2TOX_R_SQUARED 0.825, PBLUC_HILL_SLOPE 15.8, PBLUC_R_SQUARED 0.537, read-out: LUCIFERASE INFECTION ASSAY - IC50”, the 50% inhibitory concentration (IC50) is 1.34 µM.
Take `CC(=O)N(c1nc(/C=C2\NC(=S)NC2=O)cs1)c1c(C)cccc1C`: the IC90 was > 10 µM. Under setting [1], the IC50 is 8.24 µM.
In the case of `COc1ccc2c(-c3ccccc3)cc(SC(c3ccccc3)c3ccccc3)nc2c1`, the 90% effect concentration (IC90) is > 10 µM. Besides, the IC50 (FFLUC_HILL_SLOPE 74, FFLUC_R_SQUARED 0.292, read-out: LUCIFERASE INFECTION ASSAY - IC50) is > 10 µM.
In the case of `COc1ccc(Nc2nccc3c2cc(-c2ccccc2OC)n3C)cn1`, the 90% effect concentration (IC90) turned out to be 4.48 µM. Besides, the IC50 (PBLUC_HILL_SLOPE 9.12, PBLUC_R_SQUARED 0.328, read-out: LUCIFERASE INFECTION ASSAY - IC50) turned out to be 3.52 µM.
Take `Cc1cc(NC(=O)CSc2ncc(-c3ccc(Cl)cc3)n2-c2ccccc2C)no1`: the concentration for an effect of 90% (IC90) was > 10 µM. Also, the IC50 under setting [1] amounted to 9.42 µM.
For the compound `N#CN=c1nc(/C=C/c2ccccc2Cl)[nH]c(-c2ccccc2O)n1`, the IC90 is 4.29 µM. For the setting “PBLUC_HILL_SLOPE 1.8, PBLUC_R_SQUARED 0.74, read-out: LUCIFERASE INFECTION ASSAY - IC50”, the IC50 turned out to be 1.26 µM.
For `N=C(Cc1ccc([N+](=O)[O-])cc1)NOC(=O)c1cccs1`, the IC90 is > 10.8 µM. Moreover, under setting [1], the IC50 is > 10.8 µM.
As for `CC1CCN(CCOc2ccc(-c3n[nH]cc3-c3ccccc3)c(O)c2)CC1`, the 90% effect concentration (IC90) was > 8.74 µM. For the same compound, the half-maximal inhibitory concentration (IC50) (PBLUC_HILL_SLOPE 1.57, PBLUC_R_SQUARED 0.734, read-out: LUCIFERASE INFECTION ASSAY - IC50) is > 8.74 µM.
For the compound `CC1CCc2[nH]c3ccc(C(=O)NCc4ccccc4CN(C)C)cc3c2C1` (centres undefined), the concentration for an effect of 90% (IC90) was > 10 µM. For the same compound, the half-inhibitory concentration (IC50) (HEPG2TOX_HILL_SLOPE 12.7, HEPG2TOX_R_SQUARED 0.279, PBLUC_HILL_SLOPE 14.5, PBLUC_R_SQUARED 0.467, read-out: LUCIFERASE INFECTION ASSAY - IC50) came to 9.09 µM.
For `COC(=O)c1c(C)[nH]c(C(=O)C(C)OC(=O)c2ccccc2NS(=O)(=O)c2ccc(Br)s2)c1C` (centres undefined), the 90% effect concentration (IC90) was > 10 µM. For the same compound, the half-maximal inhibitory concentration (IC50) (HEPG2TOX_HILL_SLOPE 1.22, HEPG2TOX_R_SQUARED 0.375, PBLUC_HILL_SLOPE 2.55, PBLUC_R_SQUARED 0.409, read-out: LUCIFERASE INFECTION ASSAY - IC50) came to 7.98 µM.
Turning to `CNC(=O)c1cccc(NC(=O)c2ccc3[nH]c4c(c3c2)CCCC4)c1`, the IC90 is > 10 µM. For the setting “HEPG2TOX_HILL_SLOPE 15.2, HEPG2TOX_R_SQUARED 0.62, read-out: LUCIFERASE INFECTION ASSAY - IC50”, the IC50 is > 10 µM.
Turning to `CN(C)c1cccc(CNc2nccc3nc(-c4ccncc4)[nH]c23)c1`, the IC90 was > 10 µM. Moreover, the IC50 under setting [1] was > 10 µM.
Turning to `CCN(CC)CCn1c(NC(=O)c2cc3c(C)nn(-c4ccc(Cl)cc4)c3s2)nc2ccccc21`, the 90% effect concentration (IC90) is > 10 µM. In addition, under setting [1], the IC50 is > 10 µM.
Turning to `O=C(NCC1(c2ccccc2)CCC1)c1ccc(Cn2nnc3ccccc32)cc1`, the IC90 was > 10 µM. For the same compound, under setting [1], the 50% inhibitory concentration (IC50) is > 10 µM.
On to `O=c1c2ccccc2oc2nc(-c3ccccc3)n(Cc3ccccc3)c(=O)c12`, for which the IC90 was determined as 4.41 µM. The concentration for half-maximal inhibition (IC50) (PBLUC_HILL_SLOPE 10.1, PBLUC_R_SQUARED 0.696, read-out: LUCIFERASE INFECTION ASSAY - IC50) was found to be 3.55 µM.
With `CCCc1cc(C(=O)Nc2ccc(OC(F)F)cc2)sc1C`, the concentration for an effect of 90% (IC90) was > 10 µM. For the setting “PBLUC_HILL_SLOPE 2.93, PBLUC_R_SQUARED 0.424, read-out: LUCIFERASE INFECTION ASSAY - IC50”, the IC50 came to 8.81 µM.
As to `CS(=O)(=O)N1CCCc2cc(C(=O)Nc3[nH]nc4ccccc34)ccc21`, the concentration for an effect of 90% (IC90) was > 10 µM. The IC50 (PBLUC_HILL_SLOPE 1.05, PBLUC_R_SQUARED 0.487, read-out: LUCIFERASE INFECTION ASSAY - IC50) amounted to 4.21 µM.
Take `Cc1cc(C(=O)Oc2ccccc2C(N)=O)c(C)n1Cc1ccco1`: the IC90 was found to be 1.27 µM. The IC50 (PBLUC_HILL_SLOPE 14.9, PBLUC_R_SQUARED 0.682, read-out: LUCIFERASE INFECTION ASSAY - IC50) was 1.09 µM.
In the case of `Cc1ccc(Sc2ccc(/C=C/C(=O)c3ccc(Cl)c(Cl)c3Cl)cc2[N+](=O)[O-])cc1`, the 90% effect concentration (IC90) was > 10 µM. The half-maximal inhibitory concentration (IC50) under setting [1] was > 10 µM.
Take `Cc1ccc(C(=O)CN2C(=O)C(=O)N(C)C2=O)cc1C`: the concentration for an effect of 90% (IC90) is > 10 µM. Under setting [1], the IC50 was > 10 µM.
For `O=C1N(Cc2ccccc2)C(=O)C2(CCN(CC3CC=CCC3)CC2)N1CCc1ccccc1` (centres undefined), the IC90 was > 7.21 µM. Further, for the setting “HEPG2TOX_HILL_SLOPE 1.57, HEPG2TOX_R_SQUARED 0.788, PBLUC_HILL_SLOPE 4.98, PBLUC_R_SQUARED 0.479, read-out: LUCIFERASE INFECTION ASSAY - IC50”, the IC50 turned out to be 4.9 µM.
As for `FC(F)Oc1ccc(NC(=S)NCC23CC4CC(CC(C4)C2)C3)cc1`, the IC90 came out at 9.77 µM. Further, the IC50 (HEPG2TOX_HILL_SLOPE 8.2, HEPG2TOX_R_SQUARED 0.229, PBLUC_HILL_SLOPE 14.4, PBLUC_R_SQUARED 0.791, read-out: LUCIFERASE INFECTION ASSAY - IC50) was 8.38 µM.
Turning to `Cc1nc(NCc2ccc(-n3ccnc3)nc2)c2c(-c3ccccc3)csc2n1`, the IC90 was 4.03 µM. In addition, the IC50 (HEPG2TOX_HILL_SLOPE 1.9, HEPG2TOX_R_SQUARED 0.893, PBLUC_HILL_SLOPE 8.93, PBLUC_R_SQUARED 0.705, read-out: LUCIFERASE INFECTION ASSAY - IC50) stood at 3.15 µM.
`CN(C)c1nc(C=C(C#N)C#N)c(Cl)n1-c1ccc(F)cc1`: the IC90 is > 10 µM. Moreover, the 50% inhibitory concentration (IC50) under setting [1] is > 10 µM.
In the case of `N#Cc1c(CCCNC(=O)/C=C/c2ccc(Cl)c(C(F)(F)F)c2)nn(-c2ccc(F)cc2)c1N`, the IC90 is > 10 µM. Also, under setting [1], the IC50 is > 10 µM.
In the case of `Cc1ccn2cc(C(=O)Nc3nnc(CC(C)C)s3)nc2c1`, the IC90 came to 3.7 µM. Under “HEPG2TOX_HILL_SLOPE 9.95, HEPG2TOX_R_SQUARED 0.674, PBLUC_HILL_SLOPE 11.8, PBLUC_R_SQUARED 0.71, read-out: LUCIFERASE INFECTION ASSAY - IC50”, the IC50 amounted to 3.07 µM.
As for `CCNC(=O)NC(=O)C(Sc1nncn1-c1ccccc1OC)c1ccccc1` (centres undefined), the 90% effect concentration (IC90) is 9.43 µM. Besides, the IC50 (HEPG2TOX_HILL_SLOPE 2.69, HEPG2TOX_R_SQUARED 0.767, PBLUC_HILL_SLOPE 3.33, PBLUC_R_SQUARED 0.658, read-out: LUCIFERASE INFECTION ASSAY - IC50) turned out to be 4.87 µM.
Turning to `O=C(Nc1ccc(N2CCOCC2)nc1)c1ccc(S(=O)(=O)N2CCCc3ccccc32)cc1`, the IC90 is > 10 µM. Further, the IC50 (HEPG2TOX_HILL_SLOPE 1.57, HEPG2TOX_R_SQUARED 0.865, PBLUC_HILL_SLOPE 1.66, PBLUC_R_SQUARED 0.608, read-out: LUCIFERASE INFECTION ASSAY - IC50) was 2.98 µM.
For `Cc1ccc(-n2c(SCC(=O)NCCN3C(=O)S/C(=C\c4ccc(C(C)(C)C)cc4)C3=O)nc3sc4c(c3c2=O)CCCC4)c(C)c1`, the IC90 is > 10 µM. Also, the IC50 under setting [1] was > 10 µM.
In the case of `NC(=NNC(=S)Nc1ccccc1C(F)(F)F)c1ccccn1`, the IC90 is 2.78 µM. Under “FFLUC_HILL_SLOPE 21.9, FFLUC_R_SQUARED 0.597, HEPG2TOX_HILL_SLOPE 0.969, HEPG2TOX_R_SQUARED 0.909, PBLUC_HILL_SLOPE 1.81, PBLUC_R_SQUARED 0.836, read-out: LUCIFERASE INFECTION ASSAY - IC50”, the half-maximal inhibitory concentration (IC50) came out at 0.826 µM.
On to `Cc1ccccc1N1CCCn2c1nc1c2c(=O)[nH]c(=O)n1C`, for which the concentration for an effect of 90% (IC90) was > 10.6 µM. Moreover, the IC50 under setting [1] was > 10.6 µM.
For the compound `COc1ccc(-c2cnc3sc(NCCc4ccccn4)nn23)cn1`, the 90% effect concentration (IC90) is > 9.36 µM. For the same compound, the IC50 under setting [1] is > 9.36 µM.
